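1) Cells in 96-well plates. 2) Compound, 48 h, 5 concentrations. 3) Linear interpolation between surrounding doses. 4) Unreached endpoint = highest concentration. GI50: concentration for 50% inhibition of growth.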 Active and inactive are the calls of the source. Rule as the data show it: active = GI50 up to about 1.1 µM and inactive = higher.
How the values were obtained:
Assay in all cases: growth of human tumour cells (NCI), 48 h
MOLT-4 = test system: MOLT-4
Malme-3M = test system: Malme-3M
HCT-15 = test system: HCT-15
SW-620 = test system: SW-620
SF-295 = test system: SF-295
SF-268 = test system: SF-268
M19-MEL = test system: M19-MEL
HT-29 = test system: HT-29
SR = test system: SR
HL-60 = test system: HL-60
A498 = test system: A498
K562 = test system: K562
SF-539 = test system: SF-539
RPMI-8226 = test system: RPMI-8226
UACC-62 = test system: UACC-62
MDA-MB-435 = test system: MDA-MB-435
T47D = test system: T47D
RXF 393 = test system: RXF 393
Hs-578T = test system: Hs-578T
PC-3 = test system: PC-3

SMILES	GI50 (MOLT-4)	GI50 (Malme-3M)	GI50 (HCT-15) [nM]	GI50 (SW-620)	GI50 (SF-295)	GI50 (SF-268)	GI50 (M19-MEL)	GI50 (HT-29)	GI50 (SR)	GI50 (HL-60)	GI50 (A498)	GI50 (K562)	GI50 (SF-539)	GI50 (RPMI-8226)	GI50 (UACC-62)	GI50 (MDA-MB-435)	GI50 (T47D)	GI50 (RXF 393)	GI50 (Hs-578T)	GI50 (PC-3)
CN1CCCNCCN(CCc2ccccn2)CCCN(C)CC1	> 100000 nM (inactive)	> 100000 nM (inactive)	> 43500	> 33800 nM (inactive)	> 100000 nM (inactive)	> 100000 nM (inactive)	> 59400 nM (inactive)	> 100000 nM (inactive)	29100 nM (inactive)	> 48800 nM (inactive)	> 100000 nM (inactive)	> 44900 nM (inactive)	> 100000 nM (inactive)	> 52800 nM (inactive)	> 100000 nM (inactive)	–	–	–	–	–
Cc1n(CC(C)C)c2c([n+]1C)C(=O)c1ccccc1C2=O	47.8 nM (active)	95.7 nM (active)	478	43.2 nM (active)	415 nM (active)	< 16.9 nM (active)	71.9 nM (active)	24.1 nM (active)	301 nM (active)	40.5 nM (active)	320 nM (active)	431 nM (active)	47.9 nM (active)	62.8 nM (active)	198 nM (active)	143 nM (active)	37.1 nM (active)	811 nM (active)	565 nM (active)	34.8 nM (active)
CCc1cccc(C)c1NC(=O)CCc1nnc(S)[nH]1	> 100000 nM (inactive)	> 100000 nM (inactive)	> 100000	> 100000 nM (inactive)	> 100000 nM (inactive)	> 100000 nM (inactive)	> 100000 nM (inactive)	> 100000 nM (inactive)	> 100000 nM (inactive)	> 100000 nM (inactive)	–	> 100000 nM (inactive)	> 100000 nM (inactive)	> 100000 nM (inactive)	> 100000 nM (inactive)	–	–	> 100000 nM (inactive)	–	–
COC(=O)C[C@](O)(CCCC(C)(C)O)C(=O)O[C@@H]1C(OC)=C[C@]23CCCN2CCc2cc4c(cc2[C@H]13)OCO4 [OMACETAXINE MEPESUCCINATE]	12.3 nM (active)	56.8 nM (active)	217	68.2 nM (active)	152 nM (active)	149 nM (active)	19.4 nM (active)	115 nM (active)	32.7 nM (active)	32.5 nM (active)	39.5 nM (active)	39.7 nM (active)	56 nM (active)	38.8 nM (active)	113 nM (active)	4460 nM (inactive)	383 nM (active)	107 nM (active)	1070 nM (active)	3010 nM (inactive)

— ChEMBL document CHEMBL1201862, “PubChem BioAssay data set” (2004)
